Test results from EP4772510A2, “BENZAZEPINONE COMPOUND AND USE THEREOF” (HANGZHOU BIO-SINCERITY PHARMA-TECHCO., LTD., priority 2023, dated 2025).

Legend:
[1] = Pharmacokinetic experiment in SD rats; conditions: p.o, 5 mg/kg vs i.v, 0.5 mg/kg
Procedure: (§1) Example 59: Pharmacokinetic Experiment of Compounds in SD Rats
(§2) SD rats, male, 6-8 weeks old, purchased from Zhejiang Vital River Laboratory Animal Technology Co., Ltd., production license No.: SCXK (Zhejiang) 2019-0001. The animals were maintained in an SPF-grade animal room of Hangzhou Bio-Sincerity Pharma-Tech Co., Ltd., with the experimental animal use license No. of SYXK (Zhejiang) 2021-0014. The animals were used after being acclimatized for at least one week. All experiments were performed in strict compliance with the regulations on experimental animals.
(§3) Four hours after administration, food was provided.
(§4) After administration to SD rats, about 300 µL of blood was collected from the orbit of each animal and anticoagulated with EDTA-Na2. […] The collected blood was placed in an ice bath and centrifuged within 1 h to separate plasma (centrifugation conditions: 2000× g, 10 min, 4 °C). 50 µL of plasma sample was taken, subjected to protein precipitation, and then assayed by UHPLC-MS. The assay data were analyzed and processed using WinNonLin8.1 pharmacokinetic software to obtain pharmacokinetic parameters.

in vivo = conditions: male, SD, rat, plasma
Procedure: as §1, §2, §3, §4

U937 cells = assay: Inhibition of TNF-α-induced necroptosis of U937 cells (CCK-8 assay); type: cell-based, human; conditions: Homo sapiens, U-937, TNF-α 20 ng/mL + BV6 2 µM + Z-VAD-FMK 20 µM, 18 h
Method in brief: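 U937 cells (3.6 × 10^4/well) rested 6 h, then exposed to TNF-α 20 ng/mL, BV6 2 µM and Z-VAD-FMK 20 µM plus compound (8-point 3-fold series, 1000–0.46 nM, duplicate) for 18 h. Viability by CCK-8, absorbance at 450 nm after 2-4 h at 37 °C; EC50 calculated.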

HT-29 cells = assay: Inhibition of TNF-α-induced necroptosis of HT-29 cells (SRB method); type: cell-based, human; conditions: Homo sapiens, HT-29, TNF-α 20 ng/mL + BV6 2 µM + Z-VAD-FMK 20 µM, 18 h
Method in brief: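 HT-29 cells (3 × 10^4/well, 24 h) were treated 18 h with compound (8 three-fold dilutions, 1000.00-0.46 nM, duplicate) plus TNF-α 20 ng/mL, BV6 2 µM and Z-VAD-FMK 20 µM final, at 37 °C. Viability was read by SRB absorbance; EC50 values were fitted.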

O=C(NC1CCc2cccc3c2N(CC3)C1=O)c1ncn(Cc2c(F)cccc2F)n1 (stereo not drawn) [Example 13 in CN20191051 8248X, 1-(2,6-difluorobenzyl)-N-(4-oxo-1,2,3,4,6,7-hexahydroazepino[3,2,1-hi]indol-3-yl)-1H-1,2,4-triazole-3-carboxamide, reference compound]
Fabs (%) [1]: 12.55 ± 6.41%
AUC(0-t) (in vivo; intravenous, 0.5 mg/kg): 271 ± 38 ng·h/mL
Cmax (in vivo; intravenous, 0.5 mg/kg): 983 ± 106 ng/mL
clearance (in vivo; intravenous, 0.5 mg/kg): 31 ± 4.47 mL/min/kg
half-life (in vivo; intravenous, 0.5 mg/kg): 26.4 ± 15.6 min
AUC(0-t) (in vivo; oral, 5 mg/kg): 340 ± 174 ng·h/mL
CL/F (in vivo; oral, 5 mg/kg): 8.37 ± 4.01 mL/min/kg
Cmax (in vivo; oral, 5 mg/kg): 467 ± 215 ng/mL
half-life (in vivo; oral, 5 mg/kg): 20.4 ± 8.4 min

O=C(NC1CCc2cc(C#Cc3cnn(C(F)F)c3)cc3c2N(CC3)C1=O)c1ncn(Cc2ccc(F)c(F)c2)n1 (stereo not drawn) [III-23, 1-(3,4-difluorobenzyl)-N-(9-((1-(difluoromethyl)-1H-pyrazol-4-yl)ethynyl)-4-oxo-1,2,3,4,6,7-hexahydroazepino[3,2,1-hi]indol-3-yl)-1H-1,2,4-triazole-3-carboxamide]
EC50 (U937 cells): 10 to 100 nM
EC50 (HT-29 cells): 10 to 100 nM

O=C(NC1CCc2cc(C#Cc3cnn(C(F)F)c3)cc3c2N(CC3)C1=O)c1ncn(Cc2ccc(F)cc2)n1 (stereo not drawn) [III-24, N-(9-((1-(difluoromethyl)-1H-pyrazol-4-yl)ethynyl)-4-oxo-1,2,3,4,6,7-hexahydroazepino[3,2,1-hi]indol-3-yl)-1-(4-fluorobenzyl)-1H-1,2,4-triazole-3-carboxamide]
EC50 (U937 cells): 5 to 10 nM
EC50 (HT-29 cells): 10 to 100 nM

O=C(NC1CCc2cc(C#Cc3cnn4c3COCC4)cc3c2N(CC3)C1=O)c1ncn(Cc2c(F)cccc2F)n1 (stereo not drawn) [III-27, 1-(2,6-difluorobenzyl)-N-(9-((6,7-dihydro-4H-pyrazolo[5,1-c] [1,4]oxazin-3-yl)ethynyl)-4-oxo-1,2,3,4,6,7-hexahydroazepino[3,2,1-hi]indol-3-yl)-1H-1,2,4-triazole-3-carboxamide]
EC50 (U937 cells): < 5 nM
EC50 (HT-29 cells): < 5 nM

C=Cn1ncc(C#Cc2cc3c4c(c2)CCN4C(=O)C(NC(=O)c2ncn(Cc4c(F)cccc4F)n2)CC3)c1C=O (stereo not drawn) [III-28, 1-(2,6-difluorobenzyl)-N-(9-((5-formyl-1-vinyl-1H-pyrazol-4-yl)ethynyl)-4-oxo-1,2,3,4,6,7-hexahydroazepino[3,2,1-hi]indol-3-yl)-1H-1,2,4-triazole-3-carboxamide]
EC50 (U937 cells): < 5 nM
EC50 (HT-29 cells): < 5 nM

O=C(NC1CCc2cc(C#Cc3cnn(C4COC4)c3)cc3c2N(CC3)C1=O)c1ncn(Cc2c(F)cccc2F)n1 (stereo not drawn) [III-29, 1-(2,6-difluorobenzyl)-N-(9-((1-(oxetan-3-yl)-1H-pyrazol-4-yl)ethynyl)-4-oxo-1,2,3,4,6,7-hexahydroazepino[3,2,1-hi]indol-3-yl)-1H-1,2,4-triazole-3-carboxamide]
EC50 (U937 cells): < 5 nM
EC50 (HT-29 cells): < 5 nM

O=C(NC1CCc2cc(C#Cc3cnn(C4CCC4)c3)cc3c2N(CC3)C1=O)c1ncn(Cc2c(F)cccc2F)n1 (stereo not drawn) [III-30, N-(9-((1-cyclobutyl-1H-pyrazol-4-yl)ethynyl)-4-oxo-1,2,3,4,6,7-hexahydroazepino[3,2,1-hi]indol-3-yl)-1-(2,6-difluorobenzyl)-1H-1,2,4-triazole-3-carboxamide]
EC50 (U937 cells): < 5 nM
EC50 (HT-29 cells): < 5 nM

Cn1cc(C#Cc2cc3c4c(c2)CCN4C(=O)C(NC(=O)c2ncn(Cc4ccccn4)n2)CC3)cn1 (stereo not drawn) [III-31, N-(9-((1-methyl-1H-pyrazol-4-yl)ethynyl)-4-oxo-1,2,3,4,6,7-hexahydroazepino[3,2,1-hi]indol-3-yl)-1-(pyridin-2-ylmethyl)-1H-1,2,4-triazole-3-carboxamide]
EC50 (U937 cells): 5 to 10 nM
EC50 (HT-29 cells): < 5 nM

Cn1cc(C#Cc2cc3c4c(c2)CCN4C(=O)C(NC(=O)c2ncn(Cc4ccccc4)n2)CC3)cn1 (stereo not drawn) [III-32, 1-benzyl-N-(9-((1-methyl-1H-pyrazol-4-yl)ethynyl)-4-oxo-1,2,3,4,6,7-hexahydroazepino[3,2,1-hi]indol-3-yl)-1H-1,2,4-triazole-3-carboxamide]
EC50 (U937 cells): < 5 nM
EC50 (HT-29 cells): < 5 nM

Cn1cc(C#Cc2cc3c4c(c2)CCN4C(=O)C(NC(=O)c2ccn(Cc4c(F)cccc4F)n2)CC3)cn1 (stereo not drawn) [XIII-1, 1-(2,6-difluorobenzyl)-N-(9-((1-methyl-1H-pyrazol-4-yl)ethynyl)-4-oxo-1,2,3,4,6,7-hexahydroazepino[3,2,1-hi]indol-3-yl)-1H-pyrazole-3-carboxamide]
EC50 (U937 cells): 10 to 100 nM
EC50 (HT-29 cells): 10 to 100 nM
